In PubChem BioAssay (NCI) one finds GI50 and TGI data, which are given here for 43 compounds.

The test system of this assay is MDA-MB-468 breast. The experiment in a line: growth of human tumour cells (NCI), 48 h.

Values joined by “and” are separate entries in the source; they are usually repeats but may differ in a detail not shown here. Equal values may be shown once.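 1) Cells in 96-well plates. 2) Compound, 48 h, 5 concentrations. 3) Linear interpolation between surrounding doses. 4) Unreached endpoint = highest concentration. GI50 = concentration required for 50% inhibition of growth. Definition used: TGI = concentration required for complete inhibition of growth.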 *1 amine or outer side, *2 acyl side, *3 side chain or, on linkers, in order; H or OH if unused. Where a SMILES comes first, the peptide text is derived from it. [ ]: non-standard residue; d: D form. The star is where a group is joined. X11 = C/C=C/CC(C)C(O)[C@H](N[*:1])C(=O)[*:2]; Decanoyl = CCCCCCCCCC(=O)*; Leu(ol) = CC(C)C[C@H](N)CO; Iva = CC[C@](C)(N)C(=O)O; Aib = CC(C)(N)C(=O)O Some results are limits rather than exact numbers.

Turning to `c1ccc(Sc2ncnc3ccccc23)cc1`, the GI50 is 2.98 µM and the TGI worked out at 12.3 µM. The matching figures for `Nc1ccccc1SC(CC(=O)c1ccccc1)c1cccc([N+](=O)[O-])c1` (centres undefined): 15.4 µM and 31.3 µM. On to `COc1cccc(-c2nc(-c3ccc(NC(=O)OC(C)C)cc3)[nH]c2-c2ccnc(Br)c2)c1`, for which the GI50 is 2.03 µM and the TGI was 6.5 µM. The matching figures for `Clc1cccc(/C=N/Nc2nc(N/N=C/c3cccc(Cl)c3)nc(N3CCOCC3)n2)c1`: 1.65 µM and 4.28 µM. As to `O=C(CCCSc1nc(-c2ccccc2)cc(-c2ccccc2)n1)NO`, the GI50 was 1.49 µM and the TGI came out at 4.69 µM. Turning to `CC1(COc2ccc3c(c2)ncn3-c2ccc3cccc(N4CCC(N)CC4)c3n2)COC1`, the GI50 was 1.34 µM and 2 µM; the TGI was 2.94 µM and 4.95 µM. Take `O=C1NC(=NC(CO)Cc2ccccc2)S/C1=C\c1ccc2ncccc2c1` (centres undefined): the GI50 is 7.07 µM and 2.14 µM; the TGI was > 25 µM and 13.7 µM. As to `COc1ccc2nc3cc(Cl)ccc3c(NCCNCC(C)O)c2c1` (centres undefined), the GI50 was 1.55 µM and the TGI came out at 3.36 µM.

Take `O=C1c2cc3c(cc2-c2c1c1ccc(F)cc1c(=O)n2C[C@H](O)[C@@H](O)[C@H](O)CO)OCO3`: the GI50 is 0.0274 µM and the TGI was found to be 0.0759 µM.

`CCCCCCCCCCCCCCCC[N+](C)(C)Cc1ccccc1`: the GI50 is 0.328 µM and the TGI is 1.2 µM. `COc1ccc(CN2C(=O)/C(=C\c3cc(OC)c(OC)c(OC)c3)c3ccccc32)cc1`: the GI50 was 1.94 µM and the TGI was found to be 5.61 µM. The matching figures for `Nc1c(C(=O)Nc2cccc(C(F)(F)F)c2)sc2nc3c(cc12)CCCCC3`: 0.394 µM and 3.01 µM. The matching figures for `CCN(C(=O)N1CCN(c2cc3c(cc2F)c(=O)c(C(=O)O)cn3C2CC2)CC1)c1nc(-c2ccc(Cl)cc2)cs1`: 1.49 µM and 6.79 µM.

On to `COc1ccc(/C=N/NC(=O)c2cccc3cc[nH]c23)cc1O`, for which the GI50 is 3.35 µM and the TGI is > 25.2 µM. Take `COc1ccc([C@H]2[C@H](O)C(=O)N2c2cc(OC)c(OC)c(OC)c2)cc1O`: the GI50 is < 0.01 µM and the TGI was > 100 µM.

On to `CN1CC[C@@H](NC(=O)Nc2ccc(C#N)cc2)C[C@@H]1c1nc2ccccc2[nH]1`, for which the GI50 is 43.3 µM and the TGI was > 100 µM. The matching figures for `CCN1C(=O)N(c2ccccc2)C2NC(=S)N(/N=C/C=C/c3ccccc3OC)C21` (centres undefined): 0.114 µM and 14.2 µM. With `COc1cc(/C(C#N)=C/c2nc3c(N4CCOCC4)nc(Cl)nc3n2C)cc(OC)c1OC`, the GI50 is < 0.0131 µM.

With `O=C(/C(=C/c1ccc([N+](=O)[O-])cc1)SCc1ccccc1)c1ccc(Cl)cc1`, the GI50 was 2.25 µM and the TGI was determined as 5.83 µM. `COc1ccc(-c2cn[nH]c2-c2cc(OC)c(OC)c(OC)c2)cc1`: the GI50 was 0.0422 µM and the TGI came to 30.3 µM. The matching figures for `CCn1c(-c2nonc2N)nc2c(C#CC(C)(C)O)nc(OC[C@@H](N)c3ccccc3)cc21`: 4.06 µM and 7.68 µM. The matching figures for `Nc1cc(NN=C(c2ccc(O)cc2)c2ccc(O)cc2)c([N+](=O)[O-])cc1[N+](=O)[O-]`: 2.19 µM and 4.82 µM. Turning to `Cc1csc(-c2nnc(Nc3ccc(Oc4ncccc4-c4ccnc(N)n4)cc3)c3ccccc23)c1`, the GI50 is < 0.0115 µM and the TGI is > 100 µM. As for `Nc1n[nH]c2cccc(C#Cc3cccc(C(=O)Nc4ccc(CN5CCOCC5)c(C(F)(F)F)c4)c3)c12`, the GI50 is 2.87 µM and the TGI was found to be 9.72 µM. The matching figures for `Nc1ccc(C2=NNC(=O)Cc3cc4c(cc32)OCCO4)cc1Cl`: 1.58 µM and 15.9 µM. The matching figures for `COC[C@H]1Cn2cc(-c3nc(Nc4ccnn4C)ncc3C)nc2C(=O)N1Cc1ccc(F)c(F)c1`: 26.3 µM and > 100 µM. Regarding `C/C=C/CC(C)C(O)[C@H](NC(=O)[C@@H]1CCCN1C(=O)C(C)(C)NC(=O)CCCCCCCCC)C(=O)N[C@@](C)(CC)C(=O)N[C@@H](CCC(N)=O)C(=O)N[C@H](CCC(N)=O)C(=O)NC(C)(C)C(=O)NC(C)(C)C(=O)N[C@@H](CCC(N)=O)C(=O)N[C@H](CC(C)C)C(=O)N[C@H](CO)CC(C)C` (stereo partly drawn) (Decanoyl-[Aib]P[X11][Iva]Q[dQ][Aib][Aib]Q[dL][Leu(ol)]), the GI50 is 1.79 µM and the TGI is 3.42 µM.

As for `Nc1n[nH]c2cc(F)c([C@@H]3Nc4ccc5[nH]ncc5c4[C@H]4C5CCC(C5)[C@@H]34)cc12` (some centres undefined), the GI50 is 0.15 µM and the TGI turned out to be 1.9 µM.

As for `CCCOc1cc2ccccc2cc1C(=O)Nc1nc(N)c2c(ccc3nccc32)[nH]1`, the GI50 was 0.0542 µM and the TGI was 0.516 µM. The matching figures for `O=C(Nc1ccc(Oc2ccc(Nc3nc4ccccc4s3)cc2)cc1)Nc1ccc(Cl)c(C(F)(F)F)c1`: 0.405 µM and 2.2 µM. The matching figures for `COCCOc1ccc(-c2nc3ccc(-c4nc5ccc(N6CCN(C)CC6)cc5[nH]4)cc3[nH]2)cc1`: 1.42 µM and 4.16 µM.

For `CC(C)[C@@H]1C=C2CC[C@H]3[C@](C)(CN)CCC[C@]3(C)[C@H]2CC1`, the GI50 was 13.2 µM and the TGI was 28.2 µM. The matching figures for `CCN(Cc1ccc(F)cc1)c1cc(Cl)c(CO)c(Cl)c1`: 1.89 µM and 6.34 µM.

For the compound `COc1ccc(CCN=C2NC(=O)/C(=C/c3ccc4ncccc4c3)S2)cc1`, the GI50 was > 18.7 µM and the TGI was > 25 µM. In the case of `Cc1cc(C)cc(NC2=C(Cl)C(=O)c3nc(C)ccc3C2=O)c1`, the GI50 was 1.64 µM and the TGI worked out at 3.2 µM. For the compound `CN1CCN(Cc2ccc(NC(=O)c3cncc(C#Cc4cnc5ccc(N6CCSCC6)nn45)c3)cc2C(F)(F)F)CC1`, the GI50 is 0.146 µM and the TGI stood at 0.302 µM.

Turning to `CCCCCCCCCCn1cc[n+](C)c1`, the GI50 is 0.481 µM. For the compound `COc1cc(-c2ccc3cc(OC)c(OC)c(OC)c3c2)cc(OC)c1OC`, the GI50 was 3.3 µM and the TGI was > 100 µM.

With `O=C(N/N=C/c1ccc[nH]1)c1[nH]c2ccc(Br)cc2c1-c1ccccc1`, the GI50 is 0.196 µM and the TGI was 1.15 µM. With `C=C1C(=O)O[C@H]2[C@H]1CC/C(COC(=O)NCc1ccc(Cn3c(=O)sn(-c4ccc(OC)cc4)c3=O)cc1)=C\CC[C@@]1(C)O[C@@H]21`, the GI50 is 1.53 µM and the TGI was 3.54 µM.

For the compound `COc1cccc(C(=O)NC(c2ccc(C)cc2)c2cc(Cl)c3cccnc3c2O)c1` (centres undefined), the GI50 was 0.397 µM and the TGI turned out to be 2.72 µM. For `Cc1nnc(NC(=O)c2nc(S(=O)(=O)Cc3ccc(F)cc3)ncc2Cl)s1`, the GI50 was 1.2 µM and the TGI was found to be 3.28 µM. The matching figures for `CN(C)c1cc(NN=C(c2ccc(O)cc2)c2ccc(O)cc2)c([N+](=O)[O-])cc1[N+](=O)[O-]`: 10.1 µM and 22.6 µM.
